We go through 29 molecules from patent US20220402900A1, “1,2,4-OXADIAZOL-5-ONE DERIVATIVES FOR THE TREATMENT OF CANCER” (Basilea Pharmaceutica International AG, priority 2019, published 2022).

For experiment [1], the target named is T1, human TEAD2 (amino acids 217-447) (Homo sapiens, UniProt Q15562).
T1 construct: human TEAD2 (amino acids 217-447); His-tag (N); purchased Proteros biostructures PR-0365; host or cells: E. coli
The experiment can be described thus: Thermal shift assay (TSA). It is filed as binding. The settings on record: 3 μM recombinant TEAD2, compound 7 μM, shift vs DMSO control. How it is done: The thermal shift assay (TSA) was utilized to characterize target engagement in vitro based on ligand-dependent thermal stabilization of the protein. N-terminally His-tagged human TEAD2 (amino acids 217-447) expressed and purified from E. coli was purchased from Proteros biostructures (cat no. PR-0365). The melting reactions were performed in white, 96 well qPCR plates (Roche Diagnostics, cat. no. 04 729 692 001) in 20 mM HEPES pH 7, 100 mM NaCl in the presence of 4×SYPRO orange (Sigma, cat. no. S5692). Each well contained 3 μM recombinant TEAD2 and either DMSO (control) or experimental compounds at a final concentration of 7 μM. The total volume was 20 μL and the final DMSO concentration was 1%. The plate was sealed and analyzed in a LightCycler 480 II (Roche Diagnostics) by continuously reading the fluorescence using the 465-580 nm filter set while heating from 25° C. to 95° C. using a linear gradient of 1° C./min. Melting temperatures were determined by numerical differentiation using the LightCycler Thermal Shift Analysis software (Roche Diagnostics). The shifts in melting temperature caused by experimental compounds compared to the control are expressed as ΔTm (Table 2).

In experiment [2] the test system is TEAD reporter gene activity. Briefly: TEAD reporter gene assay (MCF7 TEAD reporter cell line). Format: cell-based. The settings on record: Homo sapiens; TEAD luciferase reporter in MCF7 cells, 24 hours; read-out: IC50 TEAD RGA (converted). An excerpt: A TEAD reporter cell line was purchased from BPS Bioscience (cat. no. 60618). It contains the firefly luciferase gene under control of TEAD responsive elements stably integrated into the human breast cancer MCF7 cells. In proliferating cells, a basal level of unphosphorylated YAP/TAZ resides in the nucleus and drives the TEAD-dependent expression of the luciferase reporter. The cells were cultivated as recommended by the supplier. Inhibition of TEAD reporter gene activity by experimental compounds was measured using white, clear-bottom, 96 well cell culture plates (Greiner Bio-One, cat. no. 655098). The cells were seeded at a density of 20,000 cells per well in 100 μL growth medium and the plates were incubated overnight at 37° C. with 5% CO2 prior to treatment. Experimental compounds were serially diluted in DMSO to 200× the desired final concentrations. 0.5 μL aliquots of DMSO or the test samples were then mixed into the wells and the cells were further incubated for 24 hours. Luminescence was then measured on a Synergy 4 reader (BioTek) using the ONE-Glo Luciferase Assay System (Promega, cat. no. E6120) according to the manufacturer's instructions. Relative inhibition values were calculated by normalizing the raw data using DMSO-treated cells (0% inhibition) and wells devoid of cells (100% inhibition). IC50 values were calculated by fitting concentration-response data to a sigmoidal 4-parameter logistic model.
(In a reporter assay the amount or activity of a reporter protein is the signal.)

T1 sequence (Q15562 217-447): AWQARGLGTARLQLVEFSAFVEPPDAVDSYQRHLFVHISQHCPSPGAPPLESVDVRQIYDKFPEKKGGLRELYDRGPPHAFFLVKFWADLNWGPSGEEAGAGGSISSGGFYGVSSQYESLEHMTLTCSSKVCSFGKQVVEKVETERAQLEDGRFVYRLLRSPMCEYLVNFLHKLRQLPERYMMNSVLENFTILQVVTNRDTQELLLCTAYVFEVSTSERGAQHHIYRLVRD

`O=c1[nH]c(-c2cccnc2Nc2ccc(C(F)(F)F)cc2)no1` [Example 1, 3-[2-[4-(trifluoromethyl)anilino]-3-pyridyl]-4H-1,2,4-oxadiazol-5-one]: the shift in melting temperature (ΔTm) (commonly the change in melting temperature against a reference sample) at 7 µM in experiment [1] is 9.9 °C. Also, the half-inhibitory concentration (IC50) (commonly the concentration that gives 50% inhibition) in experiment [2] is 39 nM.
On to `O=c1[nH]c(-c2nccnc2Nc2ccc(OC(F)(F)F)cc2)no1` [Example 3, 3-[3-[4-(trifluoromethoxy)anilino]pyrazin-2-yl]-4H-1,2,4-oxadiazol-5-one], for which the ΔTm at 7 µM in experiment [1] turned out to be 11.5 °C. In experiment [2], the IC50 is 90 nM.
On to `Nc1cnc(Nc2ccc(C(F)(F)F)cc2)c(-c2noc(=O)[nH]2)n1` [Example 4, 3-[6-amino-3-[4-(trifluoromethyl)anilino]pyrazin-2-yl]-4H-1,2,4-oxadiazol-5-one], for which the shift in melting temperature (ΔTm) at 7 µM in experiment [1] amounted to 2 °C. In addition, the 50% inhibitory concentration (IC50) in experiment [2] was 85 nM.
For `COc1cnc(Nc2ccc(C(F)(F)F)cc2)c(-c2noc(=O)[nH]2)n1` [Example 5, 3-[6-methoxy-3-[4-(trifluoromethyl)anilino]pyrazin-2-yl]-4H-1,2,4-oxadiazol-5-one] the same measures were 4.5 °C and 117 nM.
The like results for `O=c1[nH]c(-c2nc(CO)cnc2Nc2ccc(C(F)(F)F)cc2)no1` [Example 6, 3-[6-(hydroxymethyl)-3-[4-(trifluoromethyl)anilino]pyrazin-2-yl]-4H-1,2,4-oxadiazol-5-one] were, in that order, 5 °C and 499 nM.
The like results for `NCCc1cnc(Nc2ccc(C(F)(F)F)cc2)c(-c2noc(=O)[nH]2)n1` [Example 7, 3-[6-(2-aminoethyl)-3-[4-(trifluoromethyl)anilino]pyrazin-2-yl]-4H-1,2,4-oxadiazol-5-one] were, in that order, 0.5 °C and 2840 nM.
Consider `O=c1[nH]c(-c2nccnc2Nc2ccc(OC(F)(F)F)cc2Cl)no1` [Example 8, 3-[3-[2-chloro-4-(trifluoromethoxy)anilino]pyrazin-2-yl]-4H-1,2,4-oxadiazol-5-one], for which the shift in melting temperature (ΔTm) at 7 µM in experiment [1] was 7.5 °C. Moreover, the IC50 in experiment [2] is 1800 nM.
Take `O=c1[nH]c(-c2ncccc2Nc2ccc(C(F)(F)F)cc2)no1` [Example 9, 3-[3-[4-(trifluoromethyl)anilino]-2-pyridyl]-4H-1,2,4-oxadiazol-5-one]: in experiment [1], the ΔTm at 7 µM was determined as 9.2 °C. In addition, the IC50 in experiment [2] was 52 nM.
The like results for `O=c1[nH]c(-c2cc(C(F)(F)F)cnc2Nc2ccc(C(F)(F)F)cc2)no1` [Example 10, 3-[5-(trifluoromethyl)-2-[4-(trifluoromethyl)anilino]-3-pyridyl]-4H-1,2,4-oxadiazol-5-one] were, in that order, 10.1 °C and 374 nM.
In the case of `COc1cnc(-c2noc(=O)[nH]2)c(Nc2ccc(C(F)(F)F)cc2)n1` [Example 12, 3-[5-methoxy-3-[4-(trifluoromethyl)anilino]pyrazin-2-yl]-4H-1,2,4-oxadiazol-5-one], the thermal shift (ΔTm) at 7 µM in experiment [1] was 7.5 °C. Moreover, in experiment [2], the IC50 was 44 nM.
As to `O=c1[nH]c(-c2c(F)ccnc2Nc2ccc(C(F)(F)F)cc2)no1` [Example 13, 3-[4-fluoro-2-[4-(trifluoromethyl)anilino]-3-pyridyl]-4H-1,2,4-oxadiazol-5-one], the shift in melting temperature (ΔTm) at 7 µM in experiment [1] came to 10.3 °C. For the same molecule, the 50% inhibitory concentration (IC50) in experiment [2] is 95 nM.
Regarding `O=c1[nH]c(-c2nccnc2Nc2ccc(OCC3CC3)cc2)no1` [Example 14, 3-[3-[4-(cyclopropylmethoxy)anilino]pyrazin-2-yl]-4H-1,2,4-oxadiazol-5-one], the thermal shift (ΔTm) at 7 µM in experiment [1] was found to be 9 °C. The concentration for half-maximal inhibition (IC50) in experiment [2] was 2770 nM.
The like results for `CC(C)(C)c1ccc(Nc2nccnc2-c2noc(=O)[nH]2)cc1` [Example 15, 3-[3-(4-tert-butylanilino)pyrazin-2-yl]-4H-1,2,4-oxadiazol-5-one] were, in that order, 11.8 °C and 72 nM.
The like results for `CC(C)c1ccc(Nc2nccnc2-c2noc(=O)[nH]2)cc1` [Example 16, 3-[3-(4-isopropylanilino)pyrazin-2-yl]-4H-1,2,4-oxadiazol-5-one] were, in that order, 11.1 °C and 552 nM.
As for `CCc1ccc(Nc2nccnc2-c2noc(=O)[nH]2)cc1` [Example 17, 3-[3-(4-ethylanilino)pyrazin-2-yl]-4H-1,2,4-oxadiazol-5-one], in experiment [1], the ΔTm at 7 µM was 8.7 °C. Further, the IC50 in experiment [2] was 708 nM.
Regarding `O=c1[nH]c(-c2nccnc2Nc2ccc(-c3nccs3)cc2)no1` [Example 18, 3-[3-(4-thiazol-2-ylanilino)pyrazin-2-yl]-4H-1,2,4-oxadiazol-5-one], the ΔTm at 7 µM in experiment [1] worked out at 2.5 °C. The IC50 in experiment [2] is 828 nM.
The like results for `O=c1[nH]c(-c2nccnc2Nc2ccc(C(F)(F)F)c(F)c2)no1` [Example 19, 3-[3-[3-fluoro-4-(trifluoromethyl)anilino]pyrazin-2-yl]-4H-1,2,4-oxadiazol-5-one] were, in that order, 10.1 °C and 131 nM.
As for `O=c1[nH]c(-c2nccnc2Nc2ccc(C(F)(F)F)c(Cl)c2)no1` [Example 20, 3-[3-[3-chloro-4-(trifluoromethyl)anilino]pyrazin-2-yl]-4H-1,2,4-oxadiazol-5-one], in experiment [1], the ΔTm at 7 µM came out at 10.6 °C. For the same molecule, the half-maximal inhibitory concentration (IC50) in experiment [2] was 236 nM.
`COc1cc(C(F)(F)F)ccc1Nc1nccnc1-c1noc(=O)[nH]1` [Example 21, 3-[3-[2-methoxy-4-(trifluoromethyl)anilino]pyrazin-2-yl]-4H-1,2,4-oxadiazol-5-one]: the thermal shift (ΔTm) at 7 µM in experiment [1] is 2.1 °C. Also, in experiment [2], the IC50 was 102 nM.
For `COc1cc(Nc2nccnc2-c2noc(=O)[nH]2)ccc1C(F)(F)F` [Example 22, 3-[3-[3-methoxy-4-(trifluoromethyl)anilino]pyrazin-2-yl]-4H-1,2,4-oxadiazol-5-one] the same measures were 6.1 °C and 70 nM.
The like results for `O=c1[nH]c(-c2nccnc2Nc2cnc(C(F)(F)F)nc2)no1` [Example 23, 3-[3-[[2-(trifluoromethyl)pyrimidin-5-yl]amino]pyrazin-2-yl]-4H-1,2,4-oxadiazol-5-one] were, in that order, 1.6 °C and 64 nM.
The like results for `O=c1[nH]c(-c2nccnc2Nc2ccc(C(F)(F)F)nc2)no1` [Example 24, 3-[3-[[6-(trifluoromethyl)-3-pyridyl]amino]pyrazin-2-yl]-4H-1,2,4-oxadiazol-5-one] were, in that order, 3.4 °C and 340 nM.
Consider `O=c1[nH]c(-c2nccnc2Nc2ccc(C(F)(F)F)cc2F)no1` [Example 25], for which the thermal shift (ΔTm) at 7 µM in experiment [1] turned out to be 9.6 °C. The IC50 in experiment [2] is 117 nM.
The like results for `Cc1cc(C)c(-c2noc(=O)[nH]2)c(Nc2ccc(C(F)(F)F)cc2)n1` [Example 26, 3-[4,6-dimethyl-2-[4-(trifluoromethyl)anilino]-3-pyridyl]-4H-1,2,4-oxadiazol-5-one] were, in that order, 9.2 °C and 433 nM.
The like results for `O=C(Nc1ccc(Nc2nccnc2-c2noc(=O)[nH]2)cc1)C1CCC1` [Example 27, N-[4-[[3-(5-oxo-4H-1,2,4-oxadiazol-3-yl)pyrazin-2-yl]amino]phenyl]cyclobutanecarboxamide] were, in that order, 0.4 °C and 1540 nM.
Consider `Cc1ccnc(Nc2ccc(C(F)(F)F)cc2)c1-c1noc(=O)[nH]1` [Example 28, 3-[4-methyl-2-[4-(trifluoromethyl)anilino]-3-pyridyl]-4H-1,2,4-oxadiazol-5-one], for which the thermal shift (ΔTm) at 7 µM in experiment [1] came to 6.1 °C. Further, the 50% inhibitory concentration (IC50) in experiment [2] was 557 nM.
`O=c1[nH]c(-c2nccnc2Nc2ccc(-c3ccccc3)cc2)no1` [Example 29, 3-[3-(4-phenylanilino)pyrazin-2-yl]-4H-1,2,4-oxadiazol-5-one]: the ΔTm at 7 µM in experiment [1] worked out at 7.3 °C. For the same molecule, the IC50 in experiment [2] is 503 nM.
For `O=c1[nH]c(-c2nccnc2Nc2ccc(Cl)c(C(F)(F)F)c2)no1` [Example 30, 3-[3-[4-chloro-3-(trifluoromethyl)anilino]pyrazin-2-yl]-4H-1,2,4-oxadiazol-5-one] the same measures were 5.3 °C and 4910 nM.
The like results for `Cc1cnc(-c2noc(=O)[nH]2)c(Nc2ccc(C(F)(F)F)cc2)n1` [Example 31, 3-[5-methyl-3-[4-(trifluoromethyl)anilino]pyrazin-2-yl]-4H-1,2,4-oxadiazol-5-one] were, in that order, 10.5 °C and 35 nM.
